Columns and labels:
galium = assay: Test D pre-/postemergence herbicide test; type: in vivo, Galium aparine; conditions: Postemergence, Galium, scale 0 to 100
Outline: (§1)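 Seeds sown in silt loam were sprayed preemergence with test chemicals in a non-phytotoxic solvent mixture with surfactant. Postemergence plants grown in peat/vermiculite medium were treated at 2–18 cm (1- to 4-leaf stage). After 7 to 21 days in a controlled environment, injury was rated visually versus controls, 0 (no effect) to 100 (complete control).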

buckwheat, wild = assay: Test D pre-/postemergence herbicide test; type: in vivo, Polygonum convolvulus; conditions: Postemergence, Buckwheat, Wild, scale 0 to 100
Outline: as §1

oat, wild = assay: Test D pre-/postemergence herbicide test; type: in vivo, Avena fatua; conditions: Postemergence, Oat, Wild, scale 0 to 100
Outline: as §1

windgrass = assay: Test D pre-/postemergence herbicide test; type: in vivo, Apera spica-venti; conditions: Postemergence, Windgrass, scale 0 to 100
Outline: as §1

waterhemp = assay: Test E preemergence herbicide test; type: in vivo, Amaranthus rudis; set-up: key: 0 = no effect, 100 = complete control
Description: (§2) Seeds of plant species selected from corn (Zea mays), soybean (Glycine max), velvetleaf (Abutilon theophrasti), lambsquarters (Chenopodium album), wild poinsettia (Euphorbia heterophylla), pigweed, palmer (palmer pigweed, Amaranthus palmeri), waterhemp (common waterhemp, Amaranthus rudis), surinam grass (Brachiaria decumbens), crabgrass, large (large crabgrass, Digitaria sanguinalis), crabgrass, Brazil (Brazilian crabgrass, Digitaria horizontalis), panicum, fall (fall panicum, Panicum dichotomiflorum), foxtail, giant (giant foxtail, Setaria faberii), foxtail, green (green foxtail, Setaria viridis), goosegrass (Eleusine indica), johnsongrass (Sorghum halepense), ragweed (common ragweed, Ambrosia elatior), barnyardgrass (Echinochloa crus-galli), sandbur (southern sandbur, Cenchrus echinatus), arrowleaf […] rhombifolia), ryegrass, Italian (Italian ryegrass, Lolium multiflorum), dayflower, VA (Virginia dayflower, Commelina virginica), field bindweed (Convolvulus arvensis), morningglory (Ipomoea coccinea), nightshade (eastern black nightshade, Solanum ptycanthum), kochia (Kochia scoparia), nutsedge, yellow (yellow nutsedge, Cyperus esculentus), cocklebur (common cocklebur, Xanthium strumarium), smartweed (ladysthumb smartweed, Polygonum Persicaria) and beggarticks (hairy beggarticks, Bidens pilosa), were planted into a silt loam soil and treated preemergence with test chemicals formulated in a non-phytotoxic solvent mixture which included a surfactant. Treated plants and controls were maintained in a greenhouse for 21 days, after which time all species were compared to controls and visually evaluated. Plant response ratings, summarized in Table E, are based on a scale of 0 to 100 where 0 is no effect and 100 is complete control. A dash (-) response means no test result.

crabgrass, large = assay: Test E preemergence herbicide test; type: in vivo, Digitaria sanguinalis; set-up: key: 0 = no effect, 100 = complete control
Outline: (§3)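 Planted in silt loam; preemergence spray, non-phytotoxic solvent/surfactant formulation; greenhouse 21 d; visual score 0–100 vs controls.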

foxtail, green = assay: Test E preemergence herbicide test; type: in vivo, Setaria viridis; set-up: key: 0 = no effect, 100 = complete control
Description: as §2

ragweed = assay: Test E preemergence herbicide test; type: in vivo, Ambrosia elatior; set-up: key: 0 = no effect, 100 = complete control
Description: as §2

barnyardgrass = assay: Test E preemergence herbicide test; type: in vivo, Echinochloa crus-galli; set-up: key: 0 = no effect, 100 = complete control
Outline: as §3

kochia = assay: Test E preemergence herbicide test; type: in vivo, Kochia scoparia; set-up: key: 0 = no effect, 100 = complete control
Outline: as §3

O=C1NCC(c2ccc(F)c(F)c2)C1C(=O)Nc1cccc(F)c1F (centres unmarked) [Compound 17, N-(2,3-difluorophenyl)-4-(3,4-difluorophenyl)-2-oxo-3-pyrrolidinecarboxamide]
Plant response rating (galium; 16 g ai/ha): 0 | Plant response rating (galium; 31 g ai/ha): 0 | Plant response rating (galium; 62 g ai/ha): 0 | Plant response rating (galium; 125 g ai/ha): 10 | Plant response rating (galium; 250 g ai/ha): 30 | Plant response rating (buckwheat, wild; 16 g ai/ha): 0 | Plant response rating (buckwheat, wild; 31 g ai/ha): 0 | Plant response rating (buckwheat, wild; 62 g ai/ha): 0 | Plant response rating (buckwheat, wild; 125 g ai/ha): 10 | Plant response rating (buckwheat, wild; 250 g ai/ha): 20 | Plant response rating (oat, wild; 16 g ai/ha): 0 | Plant response rating (oat, wild; 31 g ai/ha): 0 | Plant response rating (oat, wild; 62 g ai/ha): 0 | Plant response rating (oat, wild; 125 g ai/ha): 0 | Plant response rating (oat, wild; 250 g ai/ha): 0 | Plant response rating (windgrass; 16 g ai/ha): 0 | Plant response rating (windgrass; 31 g ai/ha): 0 | Plant response rating (windgrass; 62 g ai/ha): 0 | Plant response rating (windgrass; 125 g ai/ha): 0 | Plant response rating (windgrass; 250 g ai/ha): 0 | Plant response rating, Waterhemp (waterhemp; 16 g ai/ha): 0 | Plant response rating, Waterhemp (waterhemp; 31 g ai/ha): 0 | Plant response rating, Waterhemp (waterhemp; 62 g ai/ha): 0 | Plant response rating, Waterhemp (waterhemp; 125 g ai/ha): 0 | Plant response rating, Waterhemp (waterhemp; 250 g ai/ha): 0 | Plant response rating, Crabgrass, Large (crabgrass, large; 16 g ai/ha): 15 | Plant response rating, Crabgrass, Large (crabgrass, large; 31 g ai/ha): 20 | Plant response rating, Crabgrass, Large (crabgrass, large; 62 g ai/ha): 70 | Plant response rating, Crabgrass, Large (crabgrass, large; 125 g ai/ha): 75 | Plant response rating, Crabgrass, Large (crabgrass, large; 250 g ai/ha): 95 | Plant response rating, Foxtail, Green (foxtail, green; 16 g ai/ha): 0 | Plant response rating, Foxtail, Green (foxtail, green; 31 g ai/ha): 25 | Plant response rating, Foxtail, Green (foxtail, green; 62 g ai/ha): 40 | Plant response rating, Foxtail, Green (foxtail, green; 125 g ai/ha): 70 | Plant response rating, Foxtail, Green (foxtail, green; 250 g ai/ha): 95 | Plant response rating, Ragweed (ragweed; 16 g ai/ha): 0 | Plant response rating, Ragweed (ragweed; 31 g ai/ha): 0 | Plant response rating, Ragweed (ragweed; 62 g ai/ha): 0 | Plant response rating, Ragweed (ragweed; 125 g ai/ha): 0 | Plant response rating, Ragweed (ragweed; 250 g ai/ha): 0 | Plant response rating, Barnyardgrass (barnyardgrass; 16 g ai/ha): 0 | Plant response rating, Barnyardgrass (barnyardgrass; 31 g ai/ha): 0 | Plant response rating, Barnyardgrass (barnyardgrass; 62 g ai/ha): 80 | Plant response rating, Barnyardgrass (barnyardgrass; 125 g ai/ha): 95 | Plant response rating, Barnyardgrass (barnyardgrass; 250 g ai/ha): 98 | Plant response rating, Kochia (kochia; 16 g ai/ha): 0 | Plant response rating, Kochia (kochia; 31 g ai/ha): 0 | Plant response rating, Kochia (kochia; 62 g ai/ha): 0 | Plant response rating, Kochia (kochia; 125 g ai/ha): 25 | Plant response rating, Kochia (kochia; 250 g ai/ha): 50

Reference: patent US10294202B2, “Pyrrolidinones as herbicides” (FMC Corporation, priority 2013, dated 2019)
